Assay results published in patent publication US20220101973A1, “PERSONALIZED TREATMENT TOOL” (Roche Diabetes Care, Inc., priority 2018, published 2022).
Entries after “also recorded” stand apart in the source; their conditions may differ. Read-outs that look alike come from different tables or passages of the source.

Columns and labels:
[1] = tested on: type 2 diabetes patients; assay: Hyperglycemia Efficacy Index (HEI) of diabetes drugs, from review of phase III trials with 7- or 8-point SMBG; type: in vivo, human; conditions: median ratio of effect on FBG vs effect on PPG; drugs from the same class have the same HEI
Description: Such results can be e.g. assessed via scientific publications or regulatory documents which disclose the results for the trials. Suitable scientific publications describing such trials for individual drugs can be, e.g., identified via PubMed. In an embodiment, the trials have assessed large cohorts of diabetes patients such as type 2 diabetes patients and report 7- or 8 point self-monitoring blood glucose data with determinations carried out in the fasting state, in the pre-prandial state and in the post-prandial state. In an embodiment, the trials include only type 2 diabetes patients without major comorbidities.
For establishing the database, the published information on the effects under (d1), (d2), and the risk under (d4) shall be taken into account. The indices under (d3), can be determined based on the published information for the analyzed trials.
In an embodiment, the Hyperglycemia Efficacy Index (HEI) for a drug is the ratio of the effect of said drug on fasting glucose to the effect of said drug on post-prandial glucose (i.e. the effect under (d1) and the effect under (d2)).

[2] = tested on: type 2 diabetes patients; conditions: cited from earlier work

Compound: C[C@H]1O[C@H](O[C@H]2[C@H](O)[C@@H](O)[C@@H](O[C@H]3[C@H](O)[C@@H](O)C(O)O[C@@H]3CO)O[C@@H]2CO)[C@H](O)[C@@H](O)[C@@H]1N[C@H]1C=C(CO)[C@@H](O)[C@H](O)[C@H]1O (stereo partly drawn) [Acarbose]
- Hyperglycemia Efficacy Index (HEI) [1]: HEI 0.54
- Hypo Risk Index (HRI) ([2]; 30 mg): HRI 1 - low
- Hypo Risk Index (HRI) ([2]; 300 mg): HRI 1 - low

Compound: Cc1ccc([C@@H]2O[C@H](CO)[C@@H](O)[C@H](O)[C@H]2O)cc1Cc1ccc(-c2ccc(F)cc2)s1 [Canagliflozin]
- Hypo Risk Index (HRI) ([2]; 100 mg): HRI 1 - low
- Hypo Risk Index (HRI) ([2]; 300 mg): HRI 1 - low

Compound: CCOc1ccc(Cc2cc([C@@H]3O[C@H](CO)[C@@H](O)[C@H](O)[C@H]3O)ccc2Cl)cc1 [Dapagliflozin]
- Hypo Risk Index (HRI) ([2]; 10 mg): HRI 1 - low

Compound: OC[C@H]1O[C@@H](c2ccc(Cl)c(Cc3ccc(O[C@H]4CCOC4)cc3)c2)[C@H](O)[C@@H](O)[C@@H]1O [Empagliflozin]
- Hyperglycemia Efficacy Index (HEI) [1]: HEI 0.56
- Hypo Risk Index (HRI) ([2]; 10 mg): HRI 1 - low
- Hypo Risk Index (HRI) ([2]; 25 mg): HRI 1 - low

Compound: Cc1ccc(S(=O)(=O)NC(=O)NN2CC3CCCC3C2)cc1 (stereo not drawn) [Gliclazide]
- Hypo Risk Index (HRI) ([2]; 80-320 mg): HRI 2 - moderate; also recorded: HRI 2 - medium

Compound: CCC1=C(C)CN(C(=O)NCCc2ccc(S(=O)(=O)NC(=O)N[C@H]3CC[C@H](C)CC3)cc2)C1=O [Glimepiride]
- Hypo Risk Index (HRI) ([2]; 1-8 mg): HRI 2 - moderate; also recorded: HRI 2 - medium

Compound: CCCCCCCCCCCCCCCC(=O)N[C@@H](CCC(=O)NCCCC[C@H](NC(=O)[C@H](C)NC(=O)[C@H](C)NC(=O)[C@H](CCC(N)=O)NC(=O)CNC(=O)[C@H](CCC(=O)O)NC(=O)[C@H](CC(C)C)NC(=O)[C@H](Cc1ccc(O)cc1)NC(=O)[C@H](CO)NC(=O)[C@H](CO)NC(=O)[C@@H](NC(=O)[C@H](CC(=O)O)NC(=O)[C@H](CO)NC(=O)[C@@H](NC(=O)[C@H](Cc1ccccc1)NC(=O)[C@@H](NC(=O)CNC(=O)[C@H](CCC(=O)O)NC(=O)[C@H](C)NC(=O)[C@@H](N)Cc1cnc[nH]1)[C@@H](C)O)[C@@H](C)O)C(C)C)C(=O)N[C@@H](CCC(=O)O)C(=O)N[C@@H](Cc1ccccc1)C(=O)N[C@H](C(=O)N[C@@H](C)C(=O)N[C@@H](Cc1c[nH]c2ccccc12)C(=O)N[C@@H](CC(C)C)C(=O)N[C@H](C(=O)N[C@@H](CCCNC(=N)N)C(=O)NCC(=O)N[C@@H](CCCNC(=N)N)C(=O)NCC(=O)O)C(C)C)[C@@H](C)CC)C(=O)O [Liraglutide]
- Hypo Risk Index (HRI) ([2]; 1.2 mg): HRI 1 - low
- Hypo Risk Index (HRI) ([2]; 1.8 mg): HRI 1 - low

Compound: CN(C)C(=N)N=C(N)N [Metformin]
- Hyperglycemia Efficacy Index (HEI) [1]: HEI 0.59
- Hypo Risk Index (HRI) ([2]; ≥1000 mg): HRI 1 - low

Compound: CCOc1cc(CC(=O)N[C@@H](CC(C)C)c2ccccc2N2CCCCC2)ccc1C(=O)O [Repaglinide]
- Hyperglycemia Efficacy Index (HEI) [1]: HEI 0.62
- Hypo Risk Index (HRI) ([2]; 1.5-12 mg): HRI 2 - medium

Compound: Dulaglutide
- Hypo Risk Index (HRI) ([2]; 0.75 mg): HRI 1 - low
- Hypo Risk Index (HRI) ([2]; 1.5 mg): HRI 1 - low

Compound: Exenatide LAR
- Hyperglycemia Efficacy Index (HEI) [1]: HEI 0.76
- Hypo Risk Index (HRI) ([2]; 2 mg): HRI 1 - low
